The source of these data is ChEMBL document CHEMBL1153808, “Antimalarial benzylisoquinoline alkaloid from the rainforest tree Doryphora sassafras” (J Nat Prod, 2009).

Data set [1] can be described thus: in vitro. The following applies: human, HEK293 cells.
Description: Selectivity index, ratio of antimicrobial activity against Plasmodium falciparum Dd2 over cytotoxicity against human HEK293 cells
The nature of data set [2]: in vitro. Conditions: human, HEK293 cells. This is another data set of the same source.
Description: Selectivity index, ratio of antimicrobial activity against Plasmodium falciparum 3D7 over cytotoxicity against human HEK293 cells
Data set [3] concerns Plasmodium falciparum. Put plainly: microbe, parasite or virus in culture. The following applies: 3D7, 72 h.
Description: Antimalarial activity against chloroquine-sensitive Plasmodium falciparum 3D7 after 72 hrs by DAPI staining method
The test system of data set [4] is Plasmodium falciparum. Put plainly: microbe, parasite or virus in culture. The following applies: Dd2, 72 h.
Description: Antimalarial activity against chloroquine-resistant Plasmodium falciparum Dd2 after 72 hrs by DAPI staining method
For data set [5], the system named is HEK293. Put plainly: Cytotoxicity against human HEK293 cells at 120 uM after 72 hrs by Alamar blue assay. The class given is cell-based. Conditions: hek293, 72 h. (Alamar Blue is a resazurin reagent that responds to reducing activity.)
For data set [6], the system named is HEK293. Put plainly: Cytotoxicity against human HEK293 cells at 2 uM after 72 hrs by Alamar blue assay. The format is cell-based. The following applies: hek293, 72 h.

Bounds are passed on as bounds.

For orientation: IC50 means the concentration that inhibits the measured activity by half. Low values mean higher potency, high ones lower potency. As to `C[n+]1ccc2cc3c(cc2c1Cc1ccc(O)cc1)OCO3.O=C([O-])C(F)(F)F`, the selectivity ratio in the data set “in vitro [1]” is above 27; in the data set “in vitro [2]”, above 40. Moreover, the figures for the IC50 with Plasmodium falciparum [3] and in the data set with Plasmodium falciparum [4] were 4.4 µM and 3 µM, respectively. The compound also yielded an Activity in the data set with HEK293 [5] of 0%.

`COc1ccc2c(c1O)-c1c(OC)c(OC)cc3c1[C@H](C2)NCC3.O=C(O)C(F)(F)F`: the selectivity ratio in “in vitro [1]” and in the data set “in vitro [2]” was above 6 each time. Further, the values for the IC50 with Plasmodium falciparum [3] and in the data set on Plasmodium falciparum [4] were 19 µM and 17 µM, respectively. Further, the Activity in the data set with HEK293 [5] came out at 0%.

Consider `C[C@@H]1CC[C@H]2[C@@H](C)C(=O)O[C@@H]3O[C@@]4(C)CC[C@@H]1[C@]32OO4` [ARTEMISININ], for which the selectivity ratio in the data set “in vitro [1]” and in the data set “in vitro [2]” was above 100 each time. The IC50 in the data set on Plasmodium falciparum [3] and in the data set with Plasmodium falciparum [4] was 0.021 µM in each case. For the same compound, the Activity with HEK293 [6] amounted to 0%.

`CCN(CC)CCCC(C)Nc1ccnc2cc(Cl)ccc12` (stereo unspecified) [CHLOROQUINE] returned an Activity in the data set with HEK293 [6] of 0%.
